Laboratory results published in US20240417428A1, “POLYPEPTIDE FOR INHIBITING TRPM8 AND USE THEREOF” (ZHEJIANG UNIVERSITY, priority 2021, published 2024).
Where a SMILES comes first, the peptide text is derived from it.

How the values were obtained:
[1] = molecular target: T1, TRPV3 (Homo sapiens, UniProt Q8NET8); test: Electrophysiological recording, ligand activation of TRPV3; type: cell-based
T1 construct: expressed in transfected cells; host or cells: HEK293T
T1 sequence (Q8NET8 1-790): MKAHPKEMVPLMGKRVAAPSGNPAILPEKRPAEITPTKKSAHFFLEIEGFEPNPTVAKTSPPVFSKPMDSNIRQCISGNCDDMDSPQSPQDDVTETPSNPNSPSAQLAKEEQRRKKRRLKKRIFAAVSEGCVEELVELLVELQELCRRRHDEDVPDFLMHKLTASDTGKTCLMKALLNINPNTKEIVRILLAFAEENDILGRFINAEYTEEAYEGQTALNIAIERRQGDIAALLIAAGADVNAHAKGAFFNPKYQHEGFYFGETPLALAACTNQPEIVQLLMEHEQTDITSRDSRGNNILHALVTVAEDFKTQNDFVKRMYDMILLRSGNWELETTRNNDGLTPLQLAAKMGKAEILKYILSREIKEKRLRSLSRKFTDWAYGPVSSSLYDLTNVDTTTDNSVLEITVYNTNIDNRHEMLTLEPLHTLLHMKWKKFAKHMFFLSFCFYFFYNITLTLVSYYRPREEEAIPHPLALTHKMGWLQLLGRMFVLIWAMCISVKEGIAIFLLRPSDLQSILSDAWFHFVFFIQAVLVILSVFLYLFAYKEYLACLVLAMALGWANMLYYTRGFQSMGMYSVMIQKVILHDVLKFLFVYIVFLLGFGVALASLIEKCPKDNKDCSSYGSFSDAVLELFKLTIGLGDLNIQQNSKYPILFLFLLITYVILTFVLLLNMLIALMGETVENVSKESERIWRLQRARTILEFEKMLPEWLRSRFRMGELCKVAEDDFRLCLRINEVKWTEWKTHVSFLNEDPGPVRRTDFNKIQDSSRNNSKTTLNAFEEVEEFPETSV
Protocol: (§1) HEK293T cells were cultured in Dulbecco's modified Eagle culture medium under a 37° C., 5% CO2 environment, 10% fetal bovine serum, penicillin (100 U/mL), and streptomycin ([…]) was needed to add into the culture medium. Transient transfection was conducted by using Lipo 2000 (Invitrogen) transfection kit and following the instruction manual.
(§2) Electrophysiological experiment recordings were performed on the cells within 24˜48 h of transient transfections. Specifically, single channel electrophysiological recordings were performed within 8 h after transfection.
(§3) Measurement of the cell currents was respectively performed in the whole-cell recording mode, inside-out recording mode or outside-out recording mode with a HEKA EPC10 amplifier. In the whole cell electrophysiological recordings, glass microelectrodes made of borosilicate material were fire-polished to a original electrode resistance of about 3-6 MΩ. Serial resistance was compensated by 60%. The whole cell electrophysiological recordings were performed at ±80 mV. For single channel electrophysiological recordings, glass microelectrodes were fire-polished to a higher resistance of 6-8 MΩ2. Current signal was sampled at 10 kHz and filtered at 2.9 kHz. Membrane potential of the cell membrane would be clamped at +80 mV. All electrophysiological recordings were performed at room temperature (22° C.) (the maximum variation is 1° C.). […]

[2] = molecular target: T2, Nav1.5 (Homo sapiens, UniProt Q14524); test: Electrophysiological recording of Nav1.5 sodium current; type: cell-based
T2 construct: expressed in transfected cells; host or cells: HEK293T
Protocol: as §1, §2, §3

[3] = system: CCI-induced static allodynia; test: Chronic constriction injury (CCI) model of neuropathic pain: static allodynia; type: in vivo; conditions: CCI rats
Description: Male Sprague Dawley rats (purchased from Shanghai SLAC Laboratory Animals, LLC, 7 weeks old at the beginning of the experiment, n=7-10 per treatment) were used. CCI status was formed according to the method of Bennett G J and Xie Y K (Pain 1988, 33:87-107). Rats were anesthetized by intraperitoneal injection of sodium pentobarbital. The left common sciatic nerve was made to be exposed in the middle of the thigh in a state deprived of adherent tissue, and 4-0 silk thread (Ethicon Inc.) was utilized around it and four passes were loosely ligated at intervals of approximately 1 mm. Sham surgery was performed in the same manner except for sciatic nerve ligation. CCI surgery was performed after 2-3 weeks as described in Field M J et al. (Pain 1999, 83:303-311) documented, static allodynia was evaluated by Von Frey Hairs (VFH). Before starting the experiment, the experimental animals were acclimatized to the grid bottom cage. […] Each VFH was pressed against the phasic paw for 6 seconds, or until a withdrawal response occurred. When one withdrawal response occurred, the experiment was repeated by pressing the VFH at a weaker pressure until no withdrawal response occurred. The minimum pressure required to induce a response was recorded as a withdrawal paw threshold (PWT). If the experimental animal responded below an innocuous 1.4 g VFH, it was determined to be in static allodynia. […]

[4] = molecular target: TRPM8 (Mus musculus, UniProt Q8R4D5); test: Whole-cell electrophysiological recording, menthol-activated TRPM8 in transfected HEK293T cells; type: cell-based; design: expressed in transfected cells; host or cells: HEK293T; conditions: whole-cell recording, menthol activation of TRPM8; read-out: half-inhibitory concentration (IC50) inhibiting TRPM8
Protocol: as §1, §2, §3

T2 sequence (Q14524 whole entry): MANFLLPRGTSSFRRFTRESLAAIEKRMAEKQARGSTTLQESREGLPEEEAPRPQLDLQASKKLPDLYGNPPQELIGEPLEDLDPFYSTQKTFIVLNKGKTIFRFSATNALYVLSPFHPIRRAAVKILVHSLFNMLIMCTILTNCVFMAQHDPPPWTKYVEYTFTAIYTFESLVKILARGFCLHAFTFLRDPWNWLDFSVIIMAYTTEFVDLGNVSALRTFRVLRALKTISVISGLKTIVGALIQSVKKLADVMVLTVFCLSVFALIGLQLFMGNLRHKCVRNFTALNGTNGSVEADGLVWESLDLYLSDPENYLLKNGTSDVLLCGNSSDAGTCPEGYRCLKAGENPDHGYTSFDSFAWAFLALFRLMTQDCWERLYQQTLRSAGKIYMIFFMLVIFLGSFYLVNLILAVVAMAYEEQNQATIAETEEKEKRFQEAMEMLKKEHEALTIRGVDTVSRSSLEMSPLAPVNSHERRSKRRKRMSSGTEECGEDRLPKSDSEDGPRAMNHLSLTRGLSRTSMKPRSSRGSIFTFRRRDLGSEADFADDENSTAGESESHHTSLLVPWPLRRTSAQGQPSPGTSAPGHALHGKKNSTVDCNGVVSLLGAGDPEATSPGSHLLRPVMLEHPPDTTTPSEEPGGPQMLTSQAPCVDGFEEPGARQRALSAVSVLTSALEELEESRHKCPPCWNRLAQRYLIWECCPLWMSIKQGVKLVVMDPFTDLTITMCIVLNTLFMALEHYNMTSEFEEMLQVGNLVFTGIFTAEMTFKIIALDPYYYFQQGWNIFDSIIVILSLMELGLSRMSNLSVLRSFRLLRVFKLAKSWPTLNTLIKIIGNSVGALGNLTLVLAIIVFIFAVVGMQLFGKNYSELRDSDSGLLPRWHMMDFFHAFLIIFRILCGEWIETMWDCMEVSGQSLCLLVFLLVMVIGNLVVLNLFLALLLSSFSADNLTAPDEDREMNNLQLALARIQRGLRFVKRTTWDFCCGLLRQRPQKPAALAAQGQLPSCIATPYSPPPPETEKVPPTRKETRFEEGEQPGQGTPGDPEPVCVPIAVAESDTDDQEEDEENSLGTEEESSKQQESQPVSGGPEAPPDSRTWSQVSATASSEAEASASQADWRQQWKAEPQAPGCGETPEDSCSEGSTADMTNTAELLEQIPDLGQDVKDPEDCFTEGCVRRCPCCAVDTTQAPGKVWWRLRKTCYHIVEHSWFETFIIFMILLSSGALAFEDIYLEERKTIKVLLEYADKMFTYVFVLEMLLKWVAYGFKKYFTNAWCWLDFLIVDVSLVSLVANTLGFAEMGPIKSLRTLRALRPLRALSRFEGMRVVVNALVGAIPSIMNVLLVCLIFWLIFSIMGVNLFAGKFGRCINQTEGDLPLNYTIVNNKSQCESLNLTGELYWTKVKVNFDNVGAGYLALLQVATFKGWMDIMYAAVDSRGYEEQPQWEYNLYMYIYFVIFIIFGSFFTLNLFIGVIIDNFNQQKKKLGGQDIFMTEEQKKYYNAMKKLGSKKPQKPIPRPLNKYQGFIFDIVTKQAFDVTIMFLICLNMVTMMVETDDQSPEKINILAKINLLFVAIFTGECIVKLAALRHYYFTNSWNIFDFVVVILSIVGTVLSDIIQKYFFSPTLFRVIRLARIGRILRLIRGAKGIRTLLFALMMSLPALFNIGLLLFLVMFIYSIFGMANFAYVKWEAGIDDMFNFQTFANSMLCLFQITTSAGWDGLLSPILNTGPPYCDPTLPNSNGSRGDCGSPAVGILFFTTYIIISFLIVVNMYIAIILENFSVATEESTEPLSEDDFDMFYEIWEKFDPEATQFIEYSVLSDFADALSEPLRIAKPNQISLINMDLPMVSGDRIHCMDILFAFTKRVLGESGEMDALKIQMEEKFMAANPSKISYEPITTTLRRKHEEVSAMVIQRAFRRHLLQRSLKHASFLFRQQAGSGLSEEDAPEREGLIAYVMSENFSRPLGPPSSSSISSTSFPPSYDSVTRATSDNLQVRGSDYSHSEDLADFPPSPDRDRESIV
Chain of TRPM8 (Q8R4D5 whole entry): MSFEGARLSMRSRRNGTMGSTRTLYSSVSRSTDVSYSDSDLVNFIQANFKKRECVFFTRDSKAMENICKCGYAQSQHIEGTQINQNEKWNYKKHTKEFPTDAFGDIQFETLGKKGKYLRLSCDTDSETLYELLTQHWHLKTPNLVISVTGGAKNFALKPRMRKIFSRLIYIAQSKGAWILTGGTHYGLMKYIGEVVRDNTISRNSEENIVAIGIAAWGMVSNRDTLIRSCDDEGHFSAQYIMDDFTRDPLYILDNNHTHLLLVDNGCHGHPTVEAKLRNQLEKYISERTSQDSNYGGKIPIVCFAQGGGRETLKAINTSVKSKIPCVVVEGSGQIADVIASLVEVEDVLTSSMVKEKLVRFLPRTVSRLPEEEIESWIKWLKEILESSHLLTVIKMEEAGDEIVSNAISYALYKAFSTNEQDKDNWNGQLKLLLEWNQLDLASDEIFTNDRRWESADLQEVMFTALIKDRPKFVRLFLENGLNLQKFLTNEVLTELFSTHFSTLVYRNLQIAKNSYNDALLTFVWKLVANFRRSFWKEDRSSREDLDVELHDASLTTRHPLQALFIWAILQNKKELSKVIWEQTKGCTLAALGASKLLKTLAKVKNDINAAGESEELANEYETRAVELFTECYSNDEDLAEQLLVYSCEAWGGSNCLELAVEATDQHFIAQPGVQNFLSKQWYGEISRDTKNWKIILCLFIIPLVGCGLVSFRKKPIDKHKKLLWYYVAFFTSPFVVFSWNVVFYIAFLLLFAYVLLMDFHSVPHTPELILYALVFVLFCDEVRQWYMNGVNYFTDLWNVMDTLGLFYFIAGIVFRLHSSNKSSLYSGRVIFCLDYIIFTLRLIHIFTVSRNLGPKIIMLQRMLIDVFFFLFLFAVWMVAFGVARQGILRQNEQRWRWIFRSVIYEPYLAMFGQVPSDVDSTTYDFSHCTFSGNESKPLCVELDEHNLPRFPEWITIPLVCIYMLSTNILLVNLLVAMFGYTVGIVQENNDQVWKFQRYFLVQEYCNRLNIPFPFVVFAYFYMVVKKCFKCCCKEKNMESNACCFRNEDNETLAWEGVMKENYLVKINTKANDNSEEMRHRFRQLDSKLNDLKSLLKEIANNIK

## C[C@@H]1NC(=O)[C@H](CCCNC(=N)N)NC(=O)[C@H](CC(=O)O)NC(=O)[C@H](CCCNC(=N)N)NC(=O)[C@H](CCCNC(=N)N)NC(=O)[C@@H](N)CSSC[C@@H](C(=O)O)NC(=O)[C@H](CCCNC(=N)N)NC(=O)[C@H](CCC(N)=O)NC(=O)[C@H](CCCNC(=N)N)NC(=O)[C@H](Cc2ccc(O)cc2)NC(=O)[C@H](Cc2c[nH]cn2)NC(=O)[C@H](CCCNC(=N)N)NC1=O [DeC-1.2, CRRDRARHYRQRC] (HELM PEPTIDE1{C.R.R.D.R.A.R.H.Y.R.Q.R.C}$PEPTIDE1,PEPTIDE1,1:R3-13:R3$$$V2.0; N-terminus and C-terminus assumed)
[1]
  IC50: > 100 µM
[1]; DeC-1.2 5 μM
  inhibition of ligand activation of TRPV3: failed to inhibit
[2]
  IC50: > 100 µM
[2]; Nav1.5
  inhibition of Nav channels: none of the TRP channels and Nav channels were inhibited
[3]
  activity against static allodynia (von Frey hairs): exhibited strong activity
[4]
  IC50: 0.0045 ± 0.003 µM
